Experimental data from ChEMBL document CHEMBL5614424, “Natural Product-Inspired Discovery of Naphthoquinone-Furo-Piperidine Derivatives as Novel STAT3 Inhibitors for the Treatment of Triple-Negative Breast Cancer” (J Med Chem, 2024).
Activity calls are given as the source filed them. The rule behind the calls is not given here. Peptide text beside a SMILES is read from it. * marks the point of attachment. Cbz = O=C(OCc1ccccc1)*; CH2F = FC*

Assays:
MDA-MB-231 [1] = assay: Induction of apoptosis in human MDA-MB-231 cells assessed as late apoptotic cells at 10 uM measured after 24 hrs incubation by the annexin V/propidium iodide (PI) double staining assay (reference value: 3.08%); type: functional
MDA-MB-468 [2] = assay: Induction of apoptosis in human MDA-MB-468 cells assessed as early apoptotic cells at 10 uM measured after 24 hrs incubation by the annexin V/propidium iodide (PI) double staining assay (reference value: 2.36%); type: functional
MDA-MB-231 [3] = assay: Induction of apoptosis in human MDA-MB-231 cells assessed as early apoptotic cells at 10 uM measured after 24 hrs incubation by the annexin V/propidium iodide (PI) double staining assay (reference value: 2.37%); type: functional
MDA-MB-468 [4] = assay: Induction of apoptosis in human MDA-MB-468 cells assessed as late apoptotic cells at 10 uM measured after 24 hrs incubation by the annexin V/propidium iodide (PI) double staining assay (reference value: 4.33%); type: functional
MDA-MB-231 [5] = assay: Antiproliferative activity against human MDA-MB-231 cells assessed as cell viability incubated for 48 hrs measured after additional incubation with MTT; type: functional, cell-based; conditions: MDA-MB-231, 48 h
MDA-MB-231 [6] = assay: Induction of apoptosis in human MDA-MB-231 cells assessed as late apoptotic cells at 5 uM measured after 24 hrs incubation by the annexin V/propidium iodide (PI) double staining assay (reference value: 2.69%); type: functional
MDA-MB-468 [7] = assay: Antiproliferative activity against human MDA-MB-468 cells assessed as cell viability incubated for 48 hrs measured after additional incubation with MTT; type: functional, cell-based; conditions: MDA-MB-468, 48 h
[8] = Antiproliferative activity against human MCF-10A cells assessed as cell viability incubated for 48 hrs measured after additional incubation with MTT; type: toxicity, cell-based
MDA-MB-468 [9] = assay: Induction of apoptosis in human MDA-MB-468 cells assessed as late apoptotic cells at 5 uM measured after 24 hrs incubation by the annexin V/propidium iodide (PI) double staining assay (reference value: 3.64%); type: functional
MDA-MB-468 [10] = assay: Induction of apoptosis in human MDA-MB-468 cells assessed as early apoptotic cells at 5 uM measured after 24 hrs incubation by the annexin V/propidium iodide (PI) double staining assay (reference value: 3.98%); type: functional
MDA-MB-231 [11] = assay: Induction of apoptosis in human MDA-MB-231 cells assessed as early apoptotic cells at 5 uM measured after 24 hrs incubation by the annexin V/propidium iodide (PI) double staining assay (reference value: 2.46%); type: functional
MDA-MB-468 [12] = assay: Induction of apoptosis in human MDA-MB-468 cells assessed as up-regulation of cleaved caspase 3 at 2.5 to 5 uM measured after 24 hrs by Western blotting analysis; type: functional, cell-based; conditions: dose 2.5-5 µM
MDA-MB-468 [13] = assay: Decrease in STAT5 expression level in human MDA-MB-468 cell nucleus at 1.25 to 5 uM measured after 24 hrs by Western blot analysis; type: functional, cell-based; conditions: dose 1.25-5 µM
MDA-MB-231 [14] = assay: Anti-invasion ability in human MDA-MB-231 cells assessed as reduction in cell invasion and migration ability rate incubated for 24 hrs by Boyden chamber transwell assay; type: functional, cell-based; conditions: dose 1.25-5 µM
MDA-MB-231 [15] = assay: Induction of apoptosis in human MDA-MB-231 cells assessed as down-regulation of cleaved […] at 2.5 to 5 uM measured after 24 hrs by Western blotting analysis; type: functional, cell-based; conditions: dose 2.5-5 µM
MDA-MB-468 [16] = assay: Decrease in STAT5 expression level in human MDA-MB-468 cell cytoplasm at 1.25 to 5 uM measured after 24 hrs by Western blot analysis; type: functional, cell-based; conditions: dose 1.25-5 µM
MDA-MB-231 [17] = assay: Induction of apoptosis in human MDA-MB-231 cells assessed as up-regulation of cleaved caspase 9 at 2.5 to 5 uM measured after 24 hrs by Western blotting analysis; type: functional, cell-based; conditions: dose 2.5-5 µM
[18] = target: T1, Signal transducer and activator of transcription 5A (Homo sapiens) (UniProt P42229); assay: Inhibition of STAT5 activation in human MDA-MB-231 cell assessed as decrease in […] level at 1.25 to 5 uM measured after 24 hrs by Western blot analysis; type: cell-based; conditions: dose 1.25-5 µM
T1 sequence (whole entry): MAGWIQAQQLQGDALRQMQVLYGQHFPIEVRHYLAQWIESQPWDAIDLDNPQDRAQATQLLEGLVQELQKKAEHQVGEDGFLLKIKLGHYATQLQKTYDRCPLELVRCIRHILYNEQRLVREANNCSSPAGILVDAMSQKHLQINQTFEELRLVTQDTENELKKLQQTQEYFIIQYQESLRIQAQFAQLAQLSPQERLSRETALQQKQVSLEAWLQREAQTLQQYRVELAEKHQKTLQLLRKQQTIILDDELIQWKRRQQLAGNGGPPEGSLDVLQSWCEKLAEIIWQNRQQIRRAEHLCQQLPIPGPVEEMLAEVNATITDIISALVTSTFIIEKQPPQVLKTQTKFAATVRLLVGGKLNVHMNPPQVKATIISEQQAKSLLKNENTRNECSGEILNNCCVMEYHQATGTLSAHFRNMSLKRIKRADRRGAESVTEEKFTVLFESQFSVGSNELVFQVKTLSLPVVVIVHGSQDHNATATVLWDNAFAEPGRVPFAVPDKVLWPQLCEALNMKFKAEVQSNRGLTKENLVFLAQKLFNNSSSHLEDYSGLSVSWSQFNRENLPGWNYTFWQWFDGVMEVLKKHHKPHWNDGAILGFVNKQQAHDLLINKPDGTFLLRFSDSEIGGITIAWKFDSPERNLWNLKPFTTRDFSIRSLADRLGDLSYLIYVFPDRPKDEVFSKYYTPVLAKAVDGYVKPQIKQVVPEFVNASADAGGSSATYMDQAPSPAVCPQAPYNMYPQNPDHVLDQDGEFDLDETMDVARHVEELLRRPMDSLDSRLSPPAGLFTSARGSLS

MDA-MB-231 [19] = assay: Induction of apoptosis in human MDA-MB-231 cells assessed as down-regulation of cleaved Bcl-2 at 2.5 to 5 uM measured after 24 hrs by Western blotting analysis; type: functional, cell-based; conditions: dose 2.5-5 µM
MDA-MB-468 [20] = assay: Induction of apoptosis in human MDA-MB-468 cells assessed as up-regulation of cleaved caspase 9 at 2.5 to 5 uM measured after 24 hrs by Western blotting analysis; type: functional, cell-based; conditions: dose 2.5-5 µM
MDA-MB-231 [21] = assay: Decrease in STAT5 expression level in human MDA-MB-231 cell cytoplasm at 1.25 to 5 uM measured after 24 hrs by Western blot analysis; type: functional, cell-based; conditions: dose 1.25-5 µM
MDA-MB-231 [22] = assay: Induction of apoptosis in human MDA-MB-231 cells assessed as up-regulation of cleaved caspase 3 at 2.5 to 5 uM measured after 24 hrs by Western blotting analysis; type: functional, cell-based; conditions: dose 2.5-5 µM
MDA-MB-231 [23] = assay: Inhibition of colony formation in human MDA-MB-231 cells assessed as reduction in colony number and size at 1.25 to 5 uM by plate colony formation assay; type: functional, cell-based; conditions: dose 1.25-5 µM
MDA-MB-231 [24] = assay: In vivo antitumor activity against human MDA-MB-231 cells xenografted in Female BALB/c-nude assessed as down-regulation of p-STAT3 expression in tumor tissue at 15 to 30 mg/kg, ip once daily for 21 consecutive days by […]; type: functional, organism-based; conditions: dose 15-30 mg/kg, time 21.0 day
MDA-MB-231 [25] = assay: In vivo antitumor activity against human MDA-MB-231 cells xenografted in Female BALB/c-nude assessed as increase in TUNEL positive cells in tumor tissue at 15 to 30 mg/kg, ip once daily for 21 consecutive days by TUNEL cell apoptosis assay; type: functional, organism-based; conditions: dose 15-30 mg/kg, time 21.0 day
MDA-MB-231 [26] = assay: Inhibition of cell migration in human MDA-MB-231 cells assessed as decrease in wound closure rate at 5 uM incubated for 6 to 24 hrs by wound healing assay; type: functional, cell-based; conditions: time 6-24 hrs
MDA-MB-468 [27] = assay: Induction of apoptosis in human MDA-MB-468 cells assessed as up-regulation of cleaved Bax at 2.5 to 5 uM measured after 24 hrs by Western blotting analysis; type: functional, cell-based; conditions: dose 2.5-5 µM
MDA-MB-468 [28] = assay: Induction of apoptosis in human MDA-MB-468 cells assessed as down-regulation of cleaved Bcl-2 at 2.5 to 5 uM measured after 24 hrs by Western blotting analysis; type: functional, cell-based; conditions: dose 2.5-5 µM
MDA-MB-231 [29] = assay: In vivo antitumor activity against human MDA-MB-231 cells xenografted in Female BALB/c-nude assessed as up-regulation of C-Caspase 3 expression in tumor tissue at 15 to 30 mg/kg, ip once daily for 21 consecutive days by […]; type: functional, organism-based; conditions: dose 15-30 mg/kg, time 21.0 day
MDA-MB-468 [30] = assay: Induction of apoptosis in human MDA-MB-468 cells assessed as […] at 2.5 to 5 uM measured after 24 hrs by Western blotting analysis; type: functional, cell-based; conditions: dose 2.5-5 µM
MDA-MB-231 [31] = assay: Induction of apoptosis in human MDA-MB-231 cells assessed as up-regulation of cleaved Bax at 2.5 to 5 uM measured after 24 hrs by Western blotting analysis; type: functional, cell-based; conditions: dose 2.5-5 µM
[32] = target: T2, Signal transducer and activator of transcription 1-alpha/beta (Homo sapiens) (UniProt P42224); assay: Inhibition of STAT1 activation in human MDA-MB-231 cell assessed as decrease in phosphorylated STAT1 (Tyr701) level at 1.25 to 5 uM measured after 24 hrs by Western blot analysis; type: cell-based; conditions: dose 1.25-5 µM
T2 sequence (whole entry): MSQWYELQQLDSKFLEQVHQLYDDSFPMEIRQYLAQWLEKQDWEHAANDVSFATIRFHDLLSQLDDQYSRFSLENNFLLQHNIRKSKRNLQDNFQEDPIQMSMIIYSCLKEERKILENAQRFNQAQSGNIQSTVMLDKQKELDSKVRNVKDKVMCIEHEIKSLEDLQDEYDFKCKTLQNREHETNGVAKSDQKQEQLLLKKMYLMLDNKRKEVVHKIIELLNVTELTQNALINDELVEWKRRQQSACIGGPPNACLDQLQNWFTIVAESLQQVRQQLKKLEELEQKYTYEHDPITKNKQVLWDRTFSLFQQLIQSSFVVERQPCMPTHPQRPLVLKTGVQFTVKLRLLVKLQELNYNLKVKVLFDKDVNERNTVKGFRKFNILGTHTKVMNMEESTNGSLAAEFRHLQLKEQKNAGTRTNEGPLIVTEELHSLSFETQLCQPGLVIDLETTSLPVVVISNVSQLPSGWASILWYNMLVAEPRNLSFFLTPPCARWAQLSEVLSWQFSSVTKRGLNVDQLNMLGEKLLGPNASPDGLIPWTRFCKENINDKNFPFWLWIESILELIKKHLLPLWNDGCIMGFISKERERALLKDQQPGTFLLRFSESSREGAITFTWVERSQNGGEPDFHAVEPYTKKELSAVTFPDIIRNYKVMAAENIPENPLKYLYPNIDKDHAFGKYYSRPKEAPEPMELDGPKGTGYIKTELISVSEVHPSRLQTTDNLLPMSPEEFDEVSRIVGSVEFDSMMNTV

MDA-MB-231 [33] = assay: Decrease in STAT5 expression level in human MDA-MB-231 cell nucleus at 1.25 to 5 uM measured after 24 hrs by Western blot analysis; type: functional, cell-based; conditions: dose 1.25-5 µM

Work on `CC(C)[C@H](NC(=O)OCc1ccccc1)C(=O)N[C@@H](C)C(=O)N[C@@H](CC(=O)O)C(=O)CF` (Cbz-Val-Ala-Asp-CH2F) yielded an Activity (MDA-MB-231 [1]) of 2.63%, an Activity (MDA-MB-468 [2]) of 5.02% and an Activity (MDA-MB-231 [3]) of 2.76%. The Activity (MDA-MB-468 [4]) was 2.19%.

In the case of `CC(=O)c1cc2c(o1)C(=O)c1ccccc1C2=O` [NAPABUCASIN], the IC50 (MDA-MB-231 [5]) is reported as 2.94 µM, the Activity (MDA-MB-231 [6]) is reported as 12.07% and the IC50 (MDA-MB-468 [7]) is reported as 5.22 µM. It also gave an IC50 at 48 h [8] of 7.94 µM, an Activity (MDA-MB-468 [9]) of 10% and an Activity (MDA-MB-468 [10]) of 6.32%. For the same compound, the Activity (MDA-MB-231 [11]) was 4.76%.

For `CC(C)C[C@@H](CO)N1CCc2c(oc3c2C(=O)C(=O)c2ccccc2-3)C1`, the Activity (MDA-MB-468 [12]) was “Active”, the Activity (MDA-MB-468 [13]) was “Active” and the Activity (MDA-MB-231 [14]) was “Dose-Dependent Effect”. The Activity (MDA-MB-231 [15]) was “Active”, the Activity (MDA-MB-468 [16]) was “inactive” and the Activity (MDA-MB-231 [17]) was “Active”. For the same compound, the inhibition [18] was “inactive”, the Activity (MDA-MB-231 [19]) was “Active” and the Activity (MDA-MB-468 [20]) was “Active”. For the same compound, the Activity (MDA-MB-231 [21]) was “inactive”, the Activity (MDA-MB-231 [22]) was “Active” and the inhibition (MDA-MB-231 [23]) was “Active”. For the same compound, the Activity (MDA-MB-231 [24]) was “Active”, the Activity (MDA-MB-231 [25]) was “Active” and the inhibition (MDA-MB-231 [26]) was “Active”. The Activity (MDA-MB-468 [27]) was “Active”, the Activity (MDA-MB-468 [28]) was “Active” and the Activity (MDA-MB-231 [29]) was “Active”. For the same compound, the Activity (MDA-MB-468 [30]) was “Active”, the Activity (MDA-MB-231 [31]) was “Active” and the inhibition [32] was “inactive”. For the same compound, the Activity (MDA-MB-231 [33]) was “Active”.
